ChEMBL document CHEMBL1201862, “PubChem BioAssay data set” (2004)
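Cultured in 96-well plates, cells were exposed to test compound for 48 hours across five concentrations. GI50 is the concentration that inhibits growth by half.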 The source made the active and inactive calls. No stated cut-off is given here; in the data, active = GI50 up to about 1.1 µM and inactive = higher.

Assays:
Test in all cases: DTP human tumour cell line panel, 48 h
786-0 = system: 786-0
A549 = system: A549
ACHN = system: ACHN
BT-549 = system: BT-549
CAKI-1 = system: CAKI-1
CCRF-CEM = system: CCRF-CEM
COLO 205 = system: COLO 205
DU-145 = system: DU-145
EKVX = system: EKVX
HCC 2998 = system: HCC 2998
HCT-116 = system: HCT-116
HCT-15 = system: HCT-15
HL-60 = system: HL-60
HT-29 = system: HT-29
Hs-578T = system: Hs-578T
IGROV-1 = system: IGROV-1
K562 = system: K562
KM12 = system: KM12
LOX IMVI = system: LOX IMVI
M14 = system: M14
MCF7 = system: MCF7
MDA-MB-435 = system: MDA-MB-435
MDA-N = system: MDA-N
MOLT-4 = system: MOLT-4
Malme-3M = system: Malme-3M
NCI-H226 = system: NCI-H226
NCI-H23 = system: NCI-H23
NCI-H460 = system: NCI-H460
NCI-H522 = system: NCI-H522
OVCAR-3 = system: OVCAR-3
OVCAR-4 = system: OVCAR-4
OVCAR-5 = system: OVCAR-5
OVCAR-8 = system: OVCAR-8
PC-3 = system: PC-3
RPMI-8226 = system: RPMI-8226
RXF 393 = system: RXF 393
SF-295 = system: SF-295
SF-539 = system: SF-539
SK-MEL-2 = system: SK-MEL-2
SK-MEL-5 = system: SK-MEL-5
SK-OV-3 = system: SK-OV-3
SN12C = system: SN12C
SNB-19 = system: SNB-19
SNB-75 = system: SNB-75
SR = system: SR
SW-620 = system: SW-620
T47D = system: T47D
TK-10 = system: TK-10
U-251 = system: U-251
UACC-62 = system: UACC-62
A498 = system: A498
HOP-62 = system: HOP-62
HOP-92 = system: HOP-92
MDA-MB-231 = system: MDA-MB-231
NCI/ADR-RES = system: NCI/ADR-RES
SF-268 = system: SF-268
SK-MEL-28 = system: SK-MEL-28
UACC-257 = system: UACC-257
UO-31 = system: UO-31

COc1cc2c(c(OC)c1OC)-c1ccc(SC)cc1C(=O)CC2
GI50 (786-0): < 0.01 µM (active) | GI50 (A549): < 0.01 µM (active) | GI50 (ACHN): < 0.01 µM (active) | GI50 (BT-549): > 100 µM (inactive) | GI50 (CAKI-1): < 0.0227 µM (active) | GI50 (CCRF-CEM): < 0.01 µM (active) | GI50 (COLO 205): < 0.01 µM (active) | GI50 (DU-145): < 0.01 µM (active) | GI50 (EKVX): < 0.0382 µM (active) | GI50 (HCC 2998): < 0.01 µM (active) | GI50 (HCT-116): < 0.01 µM (active) | GI50 (HCT-15): < 0.01 µM | GI50 (HL-60): < 0.01 µM (active) | GI50 (HT-29): < 0.01 µM (active) | GI50 (Hs-578T): < 0.01 µM (active) | GI50 (IGROV-1): < 0.01 µM (active) | GI50 (K562): < 0.01 µM (active) | GI50 (KM12): < 0.01 µM (active) | GI50 (LOX IMVI): < 0.01 µM (active) | GI50 (M14): < 0.01 µM (active) | GI50 (MCF7): < 0.01 µM (active) | GI50 (MDA-MB-435): < 0.01 µM (active) | GI50 (MDA-N): 0.0243 µM (active) | GI50 (MOLT-4): < 0.01 µM (active) | GI50 (Malme-3M): < 0.01 µM (active) | GI50 (NCI-H226): < 0.01 µM (active) | GI50 (NCI-H23): < 0.01 µM (active) | GI50 (NCI-H460): < 0.01 µM (active) | GI50 (NCI-H522): < 0.01 µM (active) | GI50 (OVCAR-3): < 0.01 µM (active) | GI50 (OVCAR-4): 7.76 µM (inactive) | GI50 (OVCAR-5): > 100 µM (inactive) | GI50 (OVCAR-8): < 0.01 µM (active) | GI50 (PC-3): < 0.01 µM (active) | GI50 (RPMI-8226): < 0.01 µM (active) | GI50 (RXF 393): 66.8 µM (inactive) | GI50 (SF-295): < 0.01 µM (active) | GI50 (SF-539): < 0.01 µM (active) | GI50 (SK-MEL-2): > 100 µM (inactive) | GI50 (SK-MEL-5): < 0.01 µM (active) | GI50 (SK-OV-3): < 0.01 µM (active) | GI50 (SN12C): < 0.0421 µM (active) | GI50 (SNB-19): < 0.01 µM (active) | GI50 (SNB-75): 1 µM (active) | GI50 (SR): < 0.0213 µM (active) | GI50 (SW-620): < 0.0228 µM (active) | GI50 (T47D): > 100 µM (inactive) | GI50 (TK-10): > 100 µM (inactive) | GI50 (U-251): < 0.01 µM (active) | GI50 (UACC-62): < 0.01 µM (active)

CCCNC(=O)c1cc(OC)c(OC)cc1NC(=O)C12CC3CC(CC(C3)C1)C2
GI50 (786-0): 17 µM (inactive) | GI50 (A498): 15.1 µM (inactive) | GI50 (A549): 17.1 µM (inactive) | GI50 (ACHN): 14.5 µM (inactive) | GI50 (BT-549): 16.7 µM (inactive) | GI50 (CAKI-1): 19.8 µM (inactive) | GI50 (CCRF-CEM): 28.2 µM (inactive) | GI50 (COLO 205): 24.3 µM (inactive) | GI50 (DU-145): 21.2 µM (inactive) | GI50 (EKVX): 18.2 µM (inactive) | GI50 (HCT-116): 16.8 µM (inactive) | GI50 (HCT-15): 17 µM | GI50 (HL-60): 32.7 µM (inactive) | GI50 (HOP-62): 19.7 µM (inactive) | GI50 (HOP-92): 18.3 µM (inactive) | GI50 (HT-29): 18.2 µM (inactive) | GI50 (Hs-578T): 19.8 µM (inactive) | GI50 (IGROV-1): 22.9 µM (inactive) | GI50 (K562): 31.9 µM (inactive) | GI50 (KM12): 17.6 µM (inactive) | GI50 (LOX IMVI): 19.5 µM (inactive) | GI50 (M14): 15.2 µM (inactive) | GI50 (MCF7): 22.2 µM (inactive) | GI50 (MDA-MB-231): 16.9 µM (inactive) | GI50 (MDA-MB-435): 17.9 µM (inactive) | GI50 (MDA-N): 16.7 µM (inactive) | GI50 (MOLT-4): 29.9 µM (inactive) | GI50 (Malme-3M): 17.8 µM (inactive) | GI50 (NCI-H226): 25.2 µM (inactive) | GI50 (NCI-H23): 16.8 µM (inactive) | GI50 (NCI-H460): 20.6 µM (inactive) | GI50 (NCI-H522): 12.3 µM (inactive) | GI50 (NCI/ADR-RES): 19 µM (inactive) | GI50 (OVCAR-3): 19 µM (inactive) | GI50 (OVCAR-4): 17.6 µM (inactive) | GI50 (OVCAR-5): 20.2 µM (inactive) | GI50 (OVCAR-8): 23.7 µM (inactive) | GI50 (PC-3): 17.3 µM (inactive) | GI50 (RPMI-8226): 32.4 µM (inactive) | GI50 (RXF 393): 6.81 µM (inactive) | GI50 (SF-268): 17.6 µM (inactive) | GI50 (SF-295): 18.7 µM (inactive) | GI50 (SF-539): 22.2 µM (inactive) | GI50 (SK-MEL-28): 16.1 µM (inactive) | GI50 (SK-MEL-2): 15.5 µM (inactive) | GI50 (SK-MEL-5): 40 µM (inactive) | GI50 (SN12C): 16.1 µM (inactive) | GI50 (SNB-19): 16.4 µM (inactive) | GI50 (SW-620): > 100 µM (inactive) | GI50 (T47D): 17.5 µM (inactive) | GI50 (TK-10): 16.6 µM (inactive) | GI50 (U-251): 17 µM (inactive) | GI50 (UACC-257): 17.6 µM (inactive) | GI50 (UO-31): 16.6 µM (inactive)
